Source: the supplement of paper PMC13380429

Legend:
Conditions in all cases: 72 h
[1] = test system: Vero E6; assay: cell viability relative to DMSO; higher = less toxic
[2] = test system: Calu-3; assay: as above
[3] = test system: Caco-2; assay: as above
[4] = test system: HepG2; assay: as above
[5] = test system: U2OS; assay: as above
[6] = test system: Vero E6; assay: relative viability EC50 (midpoint between 100% and the lowest measured viability); higher = less toxic
[7] = test system: HepG2; assay: as above
[8] = test system: U2OS; assay: as above
[9] = test system: Vero E6; assay: drug sensitivity score (DSS) for viability; higher = more toxic; extreme values may be limits of the assay
[10] = test system: Calu-3; assay: as above
[11] = test system: Caco-2; assay: as above
[12] = test system: HepG2; assay: as above
[13] = test system: U2OS; assay: as above
[14] = test system: Calu-3; assay: relative viability EC50 (midpoint between 100% and the lowest measured viability); higher = less toxic
[15] = test system: Caco-2; assay: as above

| SMILES | cell viability ([1]; 1 nM) | cell viability ([1]; 10 nM) | cell viability ([1]; 100 nM) | cell viability ([1]; 1000 nM) | cell viability ([1]; 10000 nM) | cell viability ([2]; 1 nM) | cell viability ([2]; 10 nM) | cell viability ([2]; 100 nM) | cell viability ([2]; 1000 nM) | cell viability ([2]; 10000 nM) | cell viability ([3]; 1 nM) | cell viability ([3]; 10 nM) | cell viability ([3]; 100 nM) | cell viability ([3]; 1000 nM) | cell viability ([3]; 10000 nM) | cell viability ([4]; 1 nM) | cell viability ([4]; 10 nM) | cell viability ([4]; 100 nM) | cell viability ([4]; 1000 nM) | cell viability ([4]; 10000 nM) | cell viability ([5]; 1 nM) | cell viability ([5]; 10 nM) | cell viability ([5]; 100 nM) | cell viability ([5]; 1000 nM) | cell viability ([5]; 10000 nM) | relative viability EC50 [6] | relative viability EC50 [7] | relative viability EC50 [8] | drug sensitivity score [9] | drug sensitivity score [10] | drug sensitivity score [11] | drug sensitivity score [12] | drug sensitivity score [13] | relative viability EC50 [14] | relative viability EC50 [15] |
| --- | --- | --- | --- | --- | --- | --- | --- | --- | --- | --- | --- | --- | --- | --- | --- | --- | --- | --- | --- | --- | --- | --- | --- | --- | --- | --- | --- | --- | --- | --- | --- | --- | --- | --- | --- |
| Cc1nnc(C[C@@H]2C=C(c3ccc(Cl)cc3)c3ccccc3-n3c(C)nnc32)o1 [BET-BAY-002] | 94.6% | 98% | 72.1% | 23.3% | 16.2% | 93.1% | 103% | 94.7% | 62.5% | 53.9% | 96.9% | 97.1% | 90.4% | 74.8% | 68.3% | 91% | 94.1% | 87% | 58.6% | 41.5% | 97.1% | 101% | 88.2% | 61.4% | 36.9% | 0.169 µM | 0.355 µM | 0.557 µM | 17.5 | 7.4 | 4.9 | 9.2 | 8.6 |  |  |
| CCOc1cc2ncc(C#N)c(Nc3ccc(OCc4cccc(F)c4)c(Cl)c3)c2cc1NC(=O)/C=C/CN(C)C [HKI-357] | 99.7% | 106% | 92.6% | 65.3% | 0.2% | 101% | 81% | 51.5% | 94.1% | 32.9% | 94.4% | 95.3% | 88.1% | 77.9% | 6% | 97% | 93.6% | 102% | 90.9% | 0.3% |  |  |  |  |  | 1.37 µM | 2.41 µM |  | 9.8 | 10.7 | 8.6 | 7 |  | 0.373 µM | 1.63 µM |
| CC1(C)CCC(C)(C)c2cc(C(=O)Nc3ccc(C(=O)O)cc3)ccc21 [AM-580] | 103% | 106% | 102% | 101% | 96.5% | 89.5% | 83.4% | 71.6% | 77.3% | 81.6% | 95.5% | 99.1% | 98.1% | 95.6% | 93.9% | 92.6% | 101% | 101% | 102% | 97.3% | 100% | 96.7% | 95.6% | 90.5% | 95.6% | > 10 µM | > 10 µM | > 10 µM | 0 | 7.7 | 0 | 0 | 0 |  | > 10 µM |
| CC[C@H](CC#N)OC(=O)N[C@@H](C)c1cccc(NC(=O)Nc2ccc(-c3cnco3)c(OC)c2)c1 [AVN-944] | 97.8% | 108% | 103% | 67.6% | 30.2% | 97.6% | 92.9% | 88.7% | 57.3% | 58.2% | 102% | 94.1% | 93.6% | 54.8% | 48% | 89% | 106% | 101% | 37.6% | 29% | 105% | 101% | 102% | 45.2% | 22.2% | 1.06 µM | 0.464 µM | 0.707 µM | 8 | 9.1 | 9.1 | 11.5 | 10.7 |  | 0.319 µM |
| COc1ccc(C(=O)c2ccccc2O)c(O)c1 [dioxybenzone] | 110% | 73.6% | 92.4% | 99.4% | 67.2% | 106% | 93.3% | 97.7% | 91.1% | 106% | 101% | 91% | 106% | 98.7% | 101% | 102% | 92% | 96.9% | 96% | 99.3% | 103% | 99% | 100% | 105% | 102% |  | > 10 µM | > 10 µM | 1.6 | 0 | 0 | 0 | 0 | > 10 µM | > 10 µM |
| O=C(NCCCCCCNC(=O)ON=C1CCCCC1)ON=C1CCCCC1 | 98.8% | 103% | 99.5% | 100% | 105% | 98.4% | 95.9% | 108% | 98.8% | 99.6% | 105% | 98.1% | 98.3% | 103% | 102% | 99.2% | 104% | 100% | 94.6% | 93.9% |  |  |  |  |  | > 10 µM | > 10 µM |  | 0 | 0 | 0 | 0 |  | > 10 µM | > 10 µM |
| CC(=O)O[C@H]1C[C@@H]2CC[C@@H]3[C@H](CC[C@@]4(C)[C@H]3C[C@H]([N+]3(C)CCCCC3)[C@@H]4OC(C)=O)[C@@]2(C)C[C@@H]1[N+]1(C)CCCCC1 [pancuronium] | 102% | 102% | 106% | 101% | 97.9% | 114% | 101% | 103% | 104% | 99.5% | 106% | 99.9% | 97.8% | 97.5% | 94.1% | 98.2% | 103% | 101% | 106% | 102% |  |  |  |  |  | > 10 µM | > 10 µM |  | 0 | 0 | 0 | 0 |  | > 10 µM | > 10 µM |
| Cc1ccc(N(CC2=NCCN2)c2cccc(O)c2)cc1 [phentolamine] |  |  |  |  |  | 99.8% | 103% | 105% | 93.5% | 106% | 99% | 98.8% | 109% | 97.4% | 91.1% | 96.8% | 96.5% | 106% | 106% | 104% | 99.3% | 100% | 94.7% | 101% | 97.3% |  | > 10 µM | > 10 µM |  | 0 | 0 | 0 | 0 | > 10 µM | > 10 µM |
| CCOCc1cc(OC)c(-c2ccc(C[C@H](NC(=O)c3c(F)cccc3F)C(=O)O)cc2)c(OC)c1 [firategrast] | 96.3% | 101% | 98.5% | 101% | 98% | 103% | 94.1% | 86.4% | 99.7% | 98.5% | 99.3% | 94.6% | 104% | 93.9% | 101% | 104% | 105% | 90.3% | 99.3% | 96.6% |  |  |  |  |  | > 10 µM | > 10 µM |  | 0 | 0 | 0 | 0 |  | > 10 µM | > 10 µM |
| CCCCCCCCCCCC(=O)N(CCO)CCO [lauric-diethanolamide] | 104% | 101% | 103% | 102% | 97.3% |  |  |  |  |  | 107% | 90.1% | 98.7% | 92.7% | 101% | 94% | 99.1% | 93.5% | 96.8% | 90.1% | 99.4% | 95.9% | 101% | 98.5% | 102% | > 10 µM | > 10 µM | > 10 µM | 0 |  | 0 | 0 | 0 |  | > 10 µM |
| O=S1(=O)N[C@H]2CCCN2c2ccccc21 | 101% | 100% | 98% | 89.5% | 96.7% | 93.3% | 106% | 108% | 104% | 101% | 100% | 96.7% | 88.4% | 104% | 113% | 96.8% | 99.3% | 89.7% | 104% | 86.7% |  |  |  |  |  | > 10 µM | > 10 µM |  | 0 | 0 | 0 | 0.1 |  | > 10 µM | > 10 µM |
| O=C(NC[C@H]1CN(c2ccc(N3CCOCC3=O)cc2)C(=O)O1)c1ccc(Cl)s1 [Rivaroxaban (Xarelto)] |  |  |  |  |  | 96.4% | 89.7% | 105% | 102% | 96.4% | 92.6% | 95.4% | 101% | 86.9% | 91% | 102% | 102% | 97.1% | 110% | 90.9% | 103% | 99.1% | 102% | 96% | 102% |  | > 10 µM | > 10 µM |  | 0 | 0 | 0 | 0 | > 10 µM | > 10 µM |
| O=C(O)C(Cl)Cl [dichloroacetate] | 104% | 96.3% | 96.1% | 104% | 96% |  |  |  |  |  | 102% | 106% | 116% | 97.3% | 98.6% | 111% | 104% | 110% | 93.2% | 102% | 104% | 96.2% | 97.4% | 96% | 99.6% | > 10 µM | > 10 µM | > 10 µM | 0 |  | 0 | 0 | 0 |  | > 10 µM |
| CC1(C)CCC(C)(C)c2cc(C#Cc3ccc(C(=O)O)cc3)ccc21 [EC-23] | 102% | 99.6% | 100% | 97.4% | 94.2% | 106% | 88.7% | 83.9% | 63.9% | 85.7% | 104% | 105% | 89.1% | 88.8% | 80.6% | 96.5% | 108% | 104% | 108% | 106% | 105% | 100% | 98.4% | 95.7% | 97.4% | > 10 µM | > 10 µM | > 10 µM | 0 | 5.2 | 1.7 | 0 | 0 |  | > 10 µM |
| CS(=O)(=O)Nc1ccc(-c2coc3cc(OCc4cccc(C(=O)O)c4)ccc3c2=O)cc1 |  |  |  |  |  | 108% | 90.4% | 96.2% | 101% | 103% | 94.9% | 97.6% | 97.7% | 97.1% | 101% | 92.6% | 107% | 101% | 109% | 93.2% | 97.8% | 99.1% | 107% | 105% | 103% |  | > 10 µM | > 10 µM |  | 0 | 0 | 0 | 0 | > 10 µM | > 10 µM |
| CN(C)CCOC(c1ccc(Cl)cc1)c1ccccn1 (configuration not stated) [carbinoxamine] | 94.5% | 102% | 99.4% | 106% | 106% | 108% | 110% | 101% | 97.4% | 103% | 110% | 98.7% | 97.2% | 99.5% | 95.3% | 99.9% | 95.8% | 102% | 104% | 99.6% |  |  |  |  |  | > 10 µM | > 10 µM |  | 0 | 0 | 0 | 0 |  | > 10 µM | > 10 µM |
